{"source": "patent US6159988A", "about": "“Arylcycloalkyl derivatives, their production and their use” (Hoeschst Aktiengesellschaft, priority 1992, dated 2000)", "key": {"[1]": {"assay": "Oral bioavailability in the dog", "format": "in vivo", "settings": "10 mg/kg oral (vs 1 mg/kg intravenous), plasma", "protocol": "(§1) Since the test compound produced significant activity in the adjuvant arthritic rats and experimental allergic encephalomyelitic guinea pigs when administered orally, the extent of oral bioavailability of this compound was estimated in rats and dogs. Compound 9 of Table 2 was administered intravenously (1 mg/kg) to conscious rats and dogs and blood samples were collected at various time points after administration. Similarly, the test compound was also administered orally (10 mg/kg) to a different set of rats and dogs and blood samples were collected at various time points. The blood samples were extracted and were analyzed by HPLC to obtain the concentration of compound 9 in the plasma. The plasma levels obtained after intravenous and oral administration were plotted against time, areas under the curves were calculated and percent bioavailability were estimated."}, "[2]": {"test_system": "adjuvant arthritis in rats", "assay": "Adjuvant-induced arthritis in rats", "format": "in vivo, rat (female Wistar)", "settings": "3, 10, and 30 mg/kg orally once a day, 12 days"}, "[3]": {"test_system": "experimental allergic encephalomyelitis (EAE) in guinea pigs", "assay": "Experimental allergic encephalomyelitis (EAE) in guinea pigs", "format": "in vivo, guinea pig", "settings": "3 mg/kg orally once daily for 10 days", "description": "This method permits the evaluation of the potential of the test compound in preventing the development of an autoimmune disorder leading to demyelination in the guinea pigs which can be equated to multiple sclerosis disease in humans. EAE is a reproducible chronic inflammatory autoimmune disease of the central nervous system in which an animal is immunized with either a homologous or heterologous extract of the whole brain and spinal cord, which contains the basic myelin protein together with Freund's Complete Adjuvant (FCA). A pathological condition would set in during ten to twenty days following immunization, which is characterized by weight loss, abnormal gait, mild to severe ataxia, paraparesis and moribund state leading to death. The potential of the test compounds to prevent this autoimmune condition was evaluated by observing the severity of the disease and mortality in comparison with untreated and hydrocortisone (standard drug) treated animals.\nGuinea pigs (200-300 g) were randomly distributed into groups of 10 each after receiving 0.075 ml of it brain and spinal cord extract in FCA intradermally on the back and 0.050 ml intrapedally in one hind paw. Compound 9 of Table 2 was administered orally at 3 mg/kg once daily for 10 days. The standard compound was administered 100 mg/kg p.o. once daily for 10 days. The weights of the animals were noted every day. Eight days after the induction of the disease, the animals were rated regularly for the severity of the disease and mortality was monitored."}, "[4]": {"test_system": "IL-1", "assay": "IL-1 release inhibition (Table 2)", "format": "cell-based, human", "settings": "Homo sapiens; 5 μM; read-out: IL-1 Rel. Inhib.", "protocol": "(§2) 10 ml of human blood were carefully drawn from the antecubital vein using a syringe containing 1 ml of a solution of 3.8% sodium citrate. After dilution with 10 ml PM 16 (Serva, Heidelberg, FRG) and underlayering with 15 ml Lymphoprep® (Molter GmbH), the sample was centrifuged at 400×g for 40 min at 20° C. The mononuclear cells forming a white ring between lymphoprep and plasma were carefully aspirated by a syringe, diluted 1:1 with PM 16 and centrifuged again at 400×g for 10 min. […] was washed with 10 ml RPMI 1640 (Gibco, Berlin, FRG), containing additionally 300 mg/l L-glutamine, 25 mmol/l […] HEPES, 100 μg/ml streptomycin and 100 μg/ml penicillin. Finally, using a Coulter counter IT, the cell suspension was adjusted to 5×10^6 cells/ml. The cells consist of approx. 90% lymphocytes and 10% monocytes.\n10 μl DMSO/water (1:10, v/v), containing the test compound, was added to 480 μl of a suspension, containing 5×10^6 mononuclear cells. The synthesis of IL-1 was stimulated by the addition of 10 μl DSMO/water (1:10, v/v), containing 0,5 μg LPS (Salmonella abortus equi, Sigma). After incubation at 37° C. for 18 hours, the samples were cooled to 0° C. and centrifuged for 1 min. in a table centrifuge. 25 μl aliquots of the supernatant were assayed for IL-1 alpha activity using a commercially available 125-J-IL-1-alpha radioimmunoassay Kit (Amersham/UK), and for IL-1 beta in a similar way using the specific test kit. Control experiments were performed as described without test compound, or with cycloheximide as a test compound."}, "[5]": {"assay": "Oral bioavailability in the rat", "format": "in vivo", "settings": "10 mg/kg oral (vs 1 mg/kg intravenous), plasma", "protocol": "as §1"}, "[6]": {"test_system": "Cotton Pellet Granuloma in Rats", "assay": "Inhibition of carrageenin cotton pellet granuloma in rats", "format": "in vivo, rat (Wistar)", "settings": "p.o. × 5", "protocol": "The implantation of carrageenin impregnated cotton pellets results in production of large, well-defined granuloma which are easily dissected. The potency of the compounds are assessed by measuring the reduction in granuloma tissue formation.\nCotton wool pellets weighing 40 mg were used for sterilization.\nPellets were dried overnight under a lamp. The pellets in the weight range of 42-44 mg were selected.\nRats (in groups of 6, male or female, Charles River, Wistar, weighing 140-150 g) were anaesthetized with ether. The back was shaved and cleaned; swabbed with alcohol and one centimeter incision was made in the lower midback. A small channel was made bilaterally using a blunt forceps and one cotton pellet placed in each channel. Air from the incision was removed and the wound was stitched. […] Three hours after the administration of the last dose on day 7, animals were sacrificed. The pellets were removed by cutting the skin along the dorsal midline and peeling the skin away from the bodywall in both lateral directions. The pellets were weighed and then placed in drying oven at 140° C. overnight. The dry weights were then recorded and the amount of granuloma was assessed by subtracting the original pellet weight from wet weights and dry weights. The data was evaluated using the difference of left and right weights (cf. Table 4)."}, "[7]": {"test_system": "KC1 induced contraction of guinea pig ileum", "assay": "KCl induced contraction of guinea pig ileum (specificity)", "format": "cell-based", "settings": "up to 7.11×10^-5 M", "protocol": "(§3) The specificity of leukotriene antagonism was determined by inducing contraction of guinea pig ileum with agonists like histamine, acetylcholine and KC1. Compounds having specific effect against lipoxygenase products induced contraction normally would not show any inhibition of histamine, acetylcholine and KC1 induced contraction."}, "[8]": {"test_system": "IL-1 alpha", "assay": "Inhibition of LPS stimulated IL-1 alpha release from human mononuclear cells", "format": "cell-based", "settings": "18 hours, 37° C., read-out: Approx. IC50 (LPS stimulated IL-1 alpha)", "protocol": "as §2\n10 μl DMSO/water (1:10, v/v), containing the test compound, was added to 480 μl of a suspension, containing 5×10^6 mononuclear cells. The synthesis of IL-1 was stimulated by the addition of 10 μl DSMO/water (1:10, v/v), containing 0,5 μg LPS (Salmonella abortus equi, Sigma). After incubation at 37° C. for 18 hours, the samples were cooled to 0° C. and centrifuged for 1 min. in a table centrifuge. […]"}, "[9]": {"test_system": "histamine induced contraction of guinea pig ileum", "assay": "Histamine induced contraction of guinea pig ileum (specificity)", "format": "cell-based", "settings": "up to 7.11×10^-5 M", "protocol": "as §3"}, "[10]": {"test_system": "isolated guinea pig ileum precontracted with leukotrienes", "assay": "Relaxation of leukotriene induced contraction of isolated guinea pig ileum", "format": "cell-based", "settings": "Cavia porcellus", "protocol": "Guinea pigs of either sex weighing 300-350 g were sensitized with a suspension of aluminum hydroxide gel and egg albumin. After 21 days, each animal was exposed to 0.5% egg albumin aerosol in an air tight perspex chamber and only those animals which developed allergic bronchoconstriction were selected for further experiment.\nThe animals were tested for one week after antigenic exposure and then sacrificed by head blow and cutting carotid arteries. The lung was quickly removed and placed in aerated Tyrode solution kept at 37° C. The lung was cut into uniform strips and each strip was placed in an organ bath containing isolated guinea pig ileum connected to potentiometric recorder through isotonic transducer in the presence of Tyrode solution kept at 37° C. After a stabilizing period of 30 minutes, the reactivity of ileum to histamine was confirmed by challenging it with 100 ng-200 ng/ml of histamine. The perfusion fluid was then replaced by Tyrode solution containing Atropine (10^-7 M), Mepyramine maleate (10^-7 M) and methylsergide (10^-7 M). Three minutes later, lung strip was challenged by egg albumin (25 μg/ml) and release of leukotrienes was monitored in terms of slow contraction of ileum. The ileum was allowed to contract for 10-15 minutes when a plateau was achieved. The test compound (compound 4 of Table 1) was then added to observe the relaxation.\nas §3"}, "[11]": {"test_system": "microanaphylactic shock of guinea pigs", "assay": "Inhibition of micro-anaphylactic shock of guinea pigs (egg albumin aerosol)", "format": "in vivo, guinea pig", "settings": "20 mg/kg^-1, i.p. + pretreatment with indomethacin, 10 mg/kg", "from_the_text": "Guinea pigs of either sex weighing between 300-350 g were sensitized with egg albumin absorbed over Al(OH)3 gel. After 21 days of sensitization, each animal was placed in an air tight perspex chamber and exposed to 0.5% egg albumin aerosol through EEL atomizer. EEL atomizer was operated by connecting it to pressurized air through a water trap and dial type sphygmomanometer at the constant air pressure of 180 mm Hg. The time of onset of asthma in seconds and recovery period in minutes was noted.\nEach animal was exposed to egg albumin aerosol at an interval of 15 days to maintain the consistency of the reactivity of animals to the antigen. After 3 such control exposures, animals were subjected to drug treatment. On the day of the experiment one group of Guinea pigs consisting of 10 animals was kept as control exposing them only to 0.5% egg albumin aerosol. […] Fifteen mins. after the administration of the test compound the animals were exposed to 0.5% egg albumin aerosol."}}, "note": "Where a name gives a salt, the structure may show the parent alone."}
{"compound": "COc1cc(OC)c([C@@H]2CCCC[C@H]2OC(=O)[C@H](C)N)c(O)c1C(=O)/C=C/c1cccc(Br)c1", "note": "[Compound 9 of Table 2, trans-(-)-2-[4,6-dimethoxy-2-hydroxy-3-(3-(3-bromophenyl)prop-2-(E)-enoyl)phenyl]cyclohexyl-2-(S)-amino propanoate hydrochloride]", "values": [{"measurement": "bioavailability", "setting": "[1]", "result": 73, "unit": "%"}, {"measurement": "reduction in the uninjected paw volumes", "setting": "[2]", "result": "significant and dose dependent reduction"}, {"measurement": "reduction in the mortality rate", "setting": "[3]", "result": 45, "unit": "%"}, {"measurement": "clinical symptoms (clinical grading)", "setting": "[3]; compared to untreated group", "result": "significantly reduced"}, {"measurement": "inhibition at 5 µM", "setting": "[4]", "result": 55, "unit": "%"}, {"measurement": "bioavailability", "setting": "[5]", "result": 46, "unit": "%"}]}
{"compound": "COc1cc(OC)c([C@@H]2CCCC[C@H]2O)c(O)c1C(=O)/C=C/c1ccc(Cl)cc1", "note": "(relative stereo) [Compound 4 of Table 1, trans-(±)-2-[4,6-Dimethoxy-2-hydroxy-3-(3-(4-chlorophenyl)prop-2-(E)-enoyl)]phenylcyclohexanol]", "values": [{"measurement": "% Inhibition of granuloma, Dry wt.", "setting": "[6]; 10 mg/kg", "result": 35.6, "unit": "%"}, {"measurement": "% Inhibition of granuloma, Wet wt.", "setting": "[6]; 10 mg/kg", "result": 21, "unit": "%"}, {"measurement": "% Inhibition of granuloma, Dry wt.", "setting": "[6]; 20 mg/kg", "result": 89.0, "unit": "%"}, {"measurement": "% Inhibition of granuloma, Wet wt.", "setting": "[6]; 20 mg/kg", "result": 54, "unit": "%"}, {"measurement": "% Inhibition of granuloma, Dry wt.", "setting": "[6]; 30 mg/kg", "result": 82.8, "unit": "%"}, {"measurement": "% Inhibition of granuloma, Wet wt.", "setting": "[6]; 30 mg/kg", "result": 64, "unit": "%"}, {"measurement": "Effect on KC1 induced contraction", "setting": "[7]", "result": "No effect"}, {"measurement": "IC50", "setting": "[8]", "result": "200 to 300", "unit": "nM"}, {"measurement": "Effect on histamine induced contraction", "setting": "[9]", "result": "No effect"}, {"measurement": "inhibition at 1.2 µM", "setting": "[10]; Conc. 1.2 × 10^-6 M", "result": 36.8, "unit": "%"}, {"measurement": "inhibition at 1.68 µM", "setting": "[10]; Conc. 1.68 × 10^-6 M", "result": 50.5, "unit": "%"}, {"measurement": "inhibition at 2.4 µM", "setting": "[10]; Conc. 2.4 × 10^-6 M", "result": 62.4, "unit": "%"}, {"measurement": "inhibition at 7.2 µM", "setting": "[10]; Conc. 7.2 × 10^-6 M", "result": 68, "unit": "%"}, {"measurement": "IC50", "setting": "[10]; relaxation of leukotriene precontracted ileum, read-out: App. IC50", "result": 1680, "unit": "nM"}, {"measurement": "Recovery period", "setting": "[11]; control group 37 + 3.4", "result": 77.6, "unit": "min"}, {"measurement": "Onset Time", "setting": "[11]; control group 75 + 8.7", "result": 149, "unit": "s"}]}
